Assay results: patent US7192924B2, “Corticotropin releasing factor 2 receptor agonists” (priority 2002, dated 2007)
Ends that are not written are not given here. Peptide text beside a SMILES is read from it.

Tests used:
[1] = target: T1, CRF2R (Homo sapiens, UniProt Q13324); experiment: CRF2R agonist activity (EC50, Emax), called comparative CRF binding; format: cell-based; conditions: read-out: CRF2R EC50
T1 sequence (Q13324 1-411): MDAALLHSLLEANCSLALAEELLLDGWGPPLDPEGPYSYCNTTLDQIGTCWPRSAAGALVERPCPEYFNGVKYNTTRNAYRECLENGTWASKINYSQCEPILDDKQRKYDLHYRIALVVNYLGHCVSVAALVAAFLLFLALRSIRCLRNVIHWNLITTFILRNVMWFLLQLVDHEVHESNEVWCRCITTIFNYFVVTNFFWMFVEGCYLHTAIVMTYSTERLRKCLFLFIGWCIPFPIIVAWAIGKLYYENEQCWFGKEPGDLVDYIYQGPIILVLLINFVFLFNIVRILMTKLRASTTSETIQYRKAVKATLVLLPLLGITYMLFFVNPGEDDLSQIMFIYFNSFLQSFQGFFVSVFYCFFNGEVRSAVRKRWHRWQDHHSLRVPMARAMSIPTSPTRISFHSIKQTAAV
Procedure, shortened: (§1)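 Cells expressing only CRF1R or CRF2R (recombinant, or with the other receptor disabled or its signal subtracted) were treated with peptide or vehicle control. Activation was read as cAMP induction in cell lysates or via a cAMP-responsive-element reporter gene.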

[2] = target: T2, CRF1R (Homo sapiens, UniProt P34998); experiment: CRF1R agonist activity (EC50, Emax), called comparative CRF binding; format: cell-based; conditions: read-out: CRF1R EC50
T2 sequence (P34998 24-415): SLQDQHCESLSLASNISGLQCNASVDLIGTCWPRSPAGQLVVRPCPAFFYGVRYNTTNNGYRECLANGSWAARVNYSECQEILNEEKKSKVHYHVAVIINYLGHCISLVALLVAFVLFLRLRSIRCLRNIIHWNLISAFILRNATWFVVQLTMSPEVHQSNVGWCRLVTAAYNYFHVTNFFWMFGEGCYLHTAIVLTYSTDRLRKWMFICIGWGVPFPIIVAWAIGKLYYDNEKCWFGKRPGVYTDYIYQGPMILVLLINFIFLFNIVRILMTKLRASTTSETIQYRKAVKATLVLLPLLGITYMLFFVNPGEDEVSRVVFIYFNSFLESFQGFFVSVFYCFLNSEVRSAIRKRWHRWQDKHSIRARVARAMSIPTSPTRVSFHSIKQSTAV
Procedure, shortened: as §1

Compound | EC50 [1] | EC50 [2]
CC[C@H](C)[C@H](N)C(=O)N[C@H](C(=O)N[C@@H](CC(C)C)C(=O)N[C@@H](CO)C(=O)N[C@@H](CC(C)C)C(=O)N[C@@H](CC(=O)O)C(=O)N[C@H](C(=O)N1CCC[C@H]1C(=O)N[C@H](C(=O)NCC(=O)N[C@@H](CC(C)C)C(=O)N[C@@H](CC(C)C)C(=O)N[C@@H](CCC(N)=O)C(=O)N[C@H](C(=O)N[C@@H](CC(C)C)C(=O)N[C@@H](CC(C)C)C(=O)N[C@@H](CCC(=O)O)C(=O)N[C@@H](CCC(N)=O)C(=O)N[C@H](C(=O)N[C@@H](CCCCN)C(=O)N[C@@H](C)C(=O)N[C@@H](CC(=O)O)C(=O)N[C@@H](CCC(N)=O)C(=O)N[C@@H](CC(C)C)C(=O)N[C@@H](C)C(=O)N[C@@H](CCC(N)=O)C(=O)N[C@@H](CCC(N)=O)C(=O)N[C@@H](C)C(=O)N[C@@H](Cc1c[nH]cn1)C(=O)N[C@@H](CO)C(=O)N[C@@H](CC(N)=O)C(=O)N[C@@H](CCCNC(=N)N)C(=O)N[C@@H](CCCCN)C(=O)N[C@@H](CC(C)C)C(=O)N[C@@H](CC(C)C)C(=O)N[C@@H](CC(=O)O)C(=O)N[C@H](C(=O)N[C@@H](C)C(N)=O)[C@@H](C)CC)[C@@H](C)O)[C@@H](C)CC)[C@@H](C)CC)C(C)C)C(C)C [compound 159] (H-IVLSLDVPIGLLQILLEQTKADQLAQQAHSNRKLLDIA-NH2; N-terminus assumed) | 90.8 nM | > 100 nM
NDDPPISIDLPLHLLRNMIEMARIENEREQAGLNAKYLAEV-NH2 [compound 259] | ≥ 100 nM | 820 nM
CC[C@H](C)[C@H](NC(=O)[C@H](C)NC(=O)[C@H](CC(N)=O)NC(=O)[C@H](CCC(N)=O)NC(=O)[C@H](CCC(=O)O)NC(=O)[C@H](C)NC(=O)[C@H](CCCNC(=N)N)NC(=O)[C@H](CCC(=O)O)NC(=O)[C@H](CCCNC(=N)N)NC(=O)[C@H](CCC(N)=O)NC(=O)[C@H](CO)NC(=O)[C@H](CCC(N)=O)NC(=O)[C@@H](NC(=O)[C@H](CCCNC(=N)N)NC(=O)[C@H](C)NC(=O)[C@H](CC(C)C)NC(=O)[C@H](CCC(=O)O)NC(=O)[C@H](CC(C)C)NC(=O)[C@H](CC(C)C)NC(=O)[C@@H](NC(=O)[C@H](CCCNC(=N)N)NC(=O)[C@H](CC(C)C)NC(=O)[C@H](CC(C)C)NC(=O)[C@H](Cc1ccc(O)cc1)NC(=O)[C@H](CC(C)C)NC(=O)[C@@H]1CCCN1C(=O)[C@H](CC(C)C)NC(=O)[C@H](CC(=O)O)NC(=O)[C@@H](NC(=O)[C@H](CO)NC(=O)[C@H](CC(C)C)NC(=O)[C@H](CO)NC(=O)[C@@H]1CCCN1C(=O)[C@H](CC(N)=O)NC(=O)[C@@H](N)CC(=O)O)[C@@H](C)CC)[C@@H](C)O)[C@@H](C)O)C(=O)N[C@H](C(=O)N[C@@H](Cc1ccccc1)C(=O)N[C@@H](C)C(=O)N[C@@H](CO)C(=O)N[C@H](C(N)=O)C(C)C)[C@@H](C)CC [compound 177] (H-DNPSLSIDLPLYLLRTLLELARTQSQRERAEQNAIIFASV-NH2; N-terminus assumed) | 5.63 nM | 613 nM
CC[C@H](C)[C@H](NC(=O)[C@H](CCCNC(=N)N)NC(=O)[C@H](C)NC(=O)[C@H](CC(N)=O)NC(=O)[C@H](CCC(N)=O)NC(=O)[C@H](CCC(=O)O)NC(=O)[C@H](C)NC(=O)[C@H](CCCNC(=N)N)NC(=O)[C@H](CCC(=O)O)NC(=O)[C@H](CCCNC(=N)N)NC(=O)[C@H](CCC(N)=O)NC(=O)[C@H](CO)NC(=O)[C@H](CCC(N)=O)NC(=O)[C@@H](NC(=O)[C@H](CCCCN)NC(=O)[C@H](CCC(=O)O)NC(=O)[C@H](CC(C)C)NC(=O)[C@H](CCC(=O)O)NC(=O)[C@H](CC(C)C)NC(=O)[C@H](CC(C)C)NC(=O)[C@@H](NC(=O)[C@H](CCCNC(=N)N)NC(=O)[C@H](CC(C)C)NC(=O)[C@H](CC(C)C)NC(=O)[C@@H](NC(=O)[C@H](CC(C)C)NC(=O)[C@@H]1CCCN1C(=O)[C@H](CC(C)C)NC(=O)[C@H](CC(=O)O)NC(=O)[C@@H](NC(=O)[C@H](CO)NC(=O)[C@H](CC(C)C)NC(=O)[C@H](CO)NC(=O)[C@@H]1CCCN1)[C@@H](C)CC)[C@@H](C)CC)[C@@H](C)O)[C@@H](C)O)C(=O)N[C@@H](Cc1ccccc1)C(=O)N[C@@H](C)C(=O)N[C@@H](CCCNC(=N)N)C(=O)N[C@H](C(N)=O)C(C)C [compound 332] (H-PSLSIDLPLILLRTLLELEKTQSQRERAEQNARIFARV-NH2; N-terminus assumed) | 9.95 nM | ≥ 1000 nM
CC[C@H](C)[C@H](NC(=O)[C@H](CCCNC(=N)N)NC(=O)[C@H](C)NC(=O)[C@H](CC(N)=O)NC(=O)[C@H](CCC(N)=O)NC(=O)[C@H](CCC(=O)O)NC(=O)[C@H](C)NC(=O)[C@H](CCCNC(=N)N)NC(=O)[C@H](CCC(=O)O)NC(=O)[C@H](CCCNC(=N)N)NC(=O)[C@H](CCC(N)=O)NC(=O)[C@H](CO)NC(=O)[C@H](CCC(N)=O)NC(=O)[C@@H](NC(=O)[C@H](CCCNC(=N)N)NC(=O)[C@H](C)NC(=O)[C@H](CC(C)C)NC(=O)[C@H](CCC(=O)O)NC(=O)[C@H](CC(C)C)NC(=O)[C@H](CC(C)C)NC(=O)[C@@H](NC(=O)[C@H](CCCNC(=N)N)NC(=O)[C@H](CC(C)C)NC(=O)[C@H](CC(C)C)NC(=O)[C@H](CC(C)C)NC(=O)[C@H](CC(C)C)NC(=O)[C@@H]1CCCN1C(=O)[C@H](CC(C)C)NC(=O)[C@H](CC(=O)O)NC(=O)[C@@H](NC(=O)[C@H](CO)NC(=O)[C@H](CC(C)C)NC(=O)[C@H](CO)NC(=O)[C@@H]1CCCN1C(=O)[C@H](CC(N)=O)NC(=O)[C@@H](N)CC(=O)O)[C@@H](C)CC)[C@@H](C)O)[C@@H](C)O)C(=O)N[C@@H](Cc1ccccc1)C(=O)N[C@@H](C)C(=O)N[C@@H](CCCNC(=N)N)C(=O)N[C@H](C(N)=O)C(C)C [compound 340] (H-DNPSLSIDLPLLLLRTLLELARTQSQRERAEQNARIFARV-NH2; N-terminus assumed) | 7.99 nM | 739 nM
CC[C@H](C)[C@H](NC(=O)[C@H](CCCNC(=N)N)NC(=O)[C@H](C)NC(=O)[C@H](CC(N)=O)NC(=O)[C@H](CCC(N)=O)NC(=O)[C@H](CCC(=O)O)NC(=O)[C@H](C)NC(=O)[C@H](CCCNC(=N)N)NC(=O)[C@H](CCC(=O)O)NC(=O)[C@H](CCCNC(=N)N)NC(=O)[C@H](CCC(N)=O)NC(=O)[C@H](CO)NC(=O)[C@H](CCC(N)=O)NC(=O)[C@@H](NC(=O)[C@H](CCCCN)NC(=O)[C@H](CCC(=O)O)NC(=O)[C@H](CC(C)C)NC(=O)[C@H](CCC(=O)O)NC(=O)[C@H](CC(C)C)NC(=O)[C@H](CC(C)C)NC(=O)[C@@H](NC(=O)[C@H](CCCNC(=N)N)NC(=O)[C@H](CC(C)C)NC(=O)[C@H](CC(C)C)NC(=O)[C@H](CC(C)C)NC(=O)[C@H](CC(C)C)NC(=O)[C@@H]1CCCN1C(=O)[C@@H](NC(=O)[C@H](CC(=O)O)NC(=O)[C@@H](NC(=O)[C@H](CO)NC(=O)[C@H](CC(C)C)NC(=O)[C@H](CO)NC(=O)[C@@H]1CCCN1C(=O)[C@H](CC(N)=O)NC(=O)[C@@H](N)CC(=O)O)[C@@H](C)CC)C(C)C)[C@@H](C)O)[C@@H](C)O)C(=O)N[C@@H](Cc1ccccc1)C(=O)N[C@@H](C)C(=O)N[C@@H](CCCNC(=N)N)C(=O)N[C@H](C(N)=O)C(C)C [compound 384] (H-DNPSLSIDVPLLLLRTLLELEKTQSQRERAEQNARIFARV-NH2; N-terminus assumed) | 7.1 nM | ≥ 1000 nM
